One data set deals with insulin secretion. Put plainly: Insulin secretion test. It counts as cell-based. As to conditions: concentration of test compound 10^−5 M. From the text: According to the method described in Endocrinology, 1992 vol. 130 (1) pp. 167-178
• C corresponds to the concentration of test compound according to the invention INS. SEC. corresponds to the percentage of insulin secretion.

A further data set concerns N0STZ rats. Put plainly: Antidiabetic activity in N0STZ rats (non-insulin-dependent diabetes induced by neonatal steptozotocin). It counts as in vivo. Particulars: N0 STZ rat, oral, percentage change in glycaemia on D4 relative to D0. Here is the method: Study of the Antidiabetic Activity in N0STZ Rats
The antidiabetic activity of the compounds of the formula (I) via the oral route, on an experimental model of non-insulin-dependent diabetes induced in rats by means of steptozotocin, was determined as follows.
The model of non-insulin-dependent diabetes is obtained in the rats by means of a neonatal injection (on the day of birth) of steptozotocin.
The diabetic rats used are eight weeks old. The animals are housed, from the day of birth to the day of the experiment, in an animal house at a regulated temperature of 21 to 22° C. and subjected to a fixed cycle of light (from 7 a.m. to 7 p.m.) and darkness (from 7p.m. to 7 a.m.). Their food consisted of a maintenance diet, and water and food were given “ad libitum”, with the exception of fasting two hours before the tests, during which period the food is removed (post-absorptive state).
The rats are treated orally for one (D1) or four (D4) days with the test product. Two hours after the final administration of the product and 30 minutes after anaesthetizing the animals with pentobarbital sodium (Nembutal®), a 300 μl blood sample is taken from the end of the tail.
By way of example, the results obtained are collated in the table below.

These results are taken from patent US7470708B2, “Acidic quinoline derivatives and their use for the prevention and/or treatment of hyperglycaemia-related pathologies” (Merck Patent Gesellschaft mit Beschraenkter Haftung, priority 2003, dated 2008).

As to `COc1ccc(C(=O)COc2cc(C(=O)O)nc3ccc(F)cc23)cc1OC` [Compound 63, 4-[2-(3,4-dimethoxyphenyl)-2-oxoethoxy]-6-fluoroquinoline-2-carboxylic acid], the “INS. SEC. (percentage of insulin secretion)” value with insulin secretion was determined as 192%.

With `O=C(O)c1cc(OCc2nc3ccccc3s2)c2cc(F)ccc2n1` [Compound 3, 4-(Benzothiazol-2-ylmethoxy)-6-fluoroquinoline-2-carboxylic acid], the melting point is over 250 °C.

As to `COC(=O)c1cc(OCC(C)CCl)c2cc(F)ccc2n1` (centres unmarked) [Compound 65, methyl 4-(3-chloro-2-methylpropoxy)-6-fluoroquinoline-2-carboxylate], the “INS. SEC. (percentage of insulin secretion)” value in the data set on insulin secretion turned out to be 161%.

For `O=C(O)c1cc(OCc2ccc(Br)cc2F)c2cc(F)ccc2n1` [Compound 2, 4-(4-Bromo-2-fluorobenzyloxy)-6-fluoroquinoline-2-carboxylic acid], the melting point was over 250 °C.

Molecule `CC(C)=CCOc1cc(C(=O)O)nc2ccc(F)cc12` [Compound 6, 6-Fluoro-4-(3-methylbut-2-enyloxy)quinoline-2-carboxylic acid] came in with a melting point of over 250 °C. In addition, the “Percentage decrease in glycaemia at 200 mg/kg” value (“Percentage decrease” below) in the data set on N0STZ rats is listed as −10%.

In the case of `O=C(O)c1cc(OC/C=C/COc2cc(C(=O)O)nc3ccc(F)cc23)c2cc(F)ccc2n1` [Compound 5, 4-({(E)-4-[(2-Carboxy-6-fluoro-4-quinolinyl)oxy]-2-butenyl}oxy)-6-fluoro-2-quinolinecarboxylic acid], the melting point was over 250 °C. In the data set with N0STZ rats, the “Percentage decrease” value is reported as −17%.

Take `COc1ccc2nc(C(=O)[O-])cc(OCc3ccc(Br)cc3F)c2c1.[Na+]` [Compound 4, 4-(4-Bromo-2-fluorobenzyloxy)-6-methoxyquinoline-2-carboxylic acid, sodium salt]: the melting point is over 250 °C.

Consider `COC(=O)c1cc(OCCCCl)c2cc(F)ccc2n1` [Compound 64, methyl 4-(3-chloropropoxy)-6-fluoroquinoline-2-carboxylate], for which the “INS. SEC. (percentage of insulin secretion)” value in the data set on insulin secretion turned out to be 179%.

The molecule `N#Cc1ccccc1-c1ccc(COc2cc(C(=O)O)nc3ccc(F)cc23)cc1` [Compound 7, 4-(2′-Cyanobiphenyl-4-ylmethoxy)-6-fluoroquinoline-2-carboxylic acid] yielded a melting point of over 250 °C.

In the case of `CCOc1cc(C(=O)O)nc2ccc(F)cc12` [Compound 1, 4-Ethoxy-6-fluoroquinoline-2-carboxylic acid], the melting point was 205 °C. For the same molecule, in the data set with insulin secretion, the “INS. SEC. (percentage of insulin secretion)” value amounted to 172%. Further, the “Percentage decrease” value in the data set with N0STZ rats is −27%.

As usually defined, the melting point is the temperature of the solid-liquid transition.
